Patent publication US20230365577A1, “Photodynamic Therapy and Diagnosis” (RMW CHO Group Limited, priority 2020, published 2023)

Key:
MDA-MB-468 [1] = assay: Phototoxicity, pan-cancer panel; assay type: cell-based; conditions: Homo sapiens, light or radiation study; MDA-MB-468, breast adenocarcinoma (triple negative)
Procedure: (§1) To test for phototoxicity, cells incubated with phyllochlorin analogues (0-10 μM in DMSO) had culture media replaced after 24 hours (as above) and were then exposed to a 652 nm laser (Invion) with laser density at 50 mW/cm^2 for 5 mins (total 15 J/cm^2). Following activation, cells were cultured for a further 24 hours. Media was then replaced with fresh media containing AlamarBlue, and % viable cells remaining assessed as above. Controls included cells treated with phyllochlorin analogues but not activated by laser light; cells without phyllochlorin analogue treatment but with laser light; and untreated controls. All measurements were made in quadruplicate.
(§2) The activity of phyllochlorin analogues against multiple cancer cell types was assessed as above, using compounds 3 and 6 as examples.

HEK293 = assay: Phototoxicity, pan-cancer panel; assay type: cell-based; conditions: Homo sapiens, light or radiation study; HEK293, embryonic kidney
Procedure: as §1, §2

A549 [2] = assay: Phototoxicity, pan-cancer panel; assay type: cell-based; conditions: Homo sapiens, light or radiation study; A549, lung adenocarcinoma
Procedure: as §1, §2

LP9 [3] = assay: Phototoxicity, pan-cancer panel; assay type: cell-based; conditions: light or radiation study; LP9, immortalised mesothelial cells
Procedure: as §1, §2

B16F10 = assay: Phototoxicity, pan-cancer panel; assay type: cell-based; conditions: Mus musculus, B16-F10, light or radiation study; B16F10, melanoma
Procedure: as §1, §2

DLD-1 [4] = assay: Phototoxicity, pan-cancer panel; assay type: cell-based; conditions: Homo sapiens, light or radiation study; DLD-1, colorectal adenocarcinoma
Procedure: as §1, §2

HH [5] = assay: Phototoxicity, pan-cancer panel; assay type: cell-based; conditions: Homo sapiens, light or radiation study, T cell lymphoma
Procedure: as §1, §2

MDA-MB-468 [6] = assay: Cytotoxicity, pan-cancer panel; assay type: cell-based; conditions: MDA-MB-468, breast adenocarcinoma (triple negative)
Procedure: (§3) To test for inherent cytotoxicity (i.e. “dark toxicity”) of the phyllochlorin analogue the culture media was replaced after 24 hours with fresh media containing 10% (v/v) AlamarBlue Cell Viability Reagent (ThermoFisher) and cells incubated at 37° C. for 6 hours. Untreated cells were used as a control. Fluorescence (Ex 555 nm/Em 596 nm) was measured using a Cytation 3 Multimode Plate Reader (Biotek), and cytotoxicity assessed according to the % viable cells remaining. All measurements were made in quadruplicate.
as §2

A549 [7] = assay: Cytotoxicity, pan-cancer panel; assay type: cell-based; conditions: A549, lung adenocarcinoma
Procedure: as §3, §2

LP9 [8] = assay: Cytotoxicity, pan-cancer panel; assay type: cell-based; conditions: LP9, immortalised mesothelial cells
Procedure: as §3, §2

DLD-1 [9] = assay: Cytotoxicity, pan-cancer panel; assay type: cell-based; conditions: DLD-1, colorectal adenocarcinoma
Procedure: as §3, §2

HH [10] = assay: Cytotoxicity, pan-cancer panel; assay type: cell-based; conditions: T cell lymphoma
Procedure: as §3, §2

[11] = In vivo toxicity in wild type mice; conditions: intravenous or intraperitoneal injection, 0.5 to 5 mg/kg
Procedure: The potential application of compound 6 as a representative phyllochlorin species was explored in vivo. Wild type mice (Balb/C and C57BL/6) received compound 6 by intravenous or intraperitoneal injection, with doses ranging from 0.5 to 5 mg/kg.

With `C=Cc1c(C)c2cc3nc(c(C)c4cc(C)c(cc5nc(cc1[nH]2)C(C)=C5CC)[nH]4)[C@@H](CCC(=O)N(C)CCCS[C@@H]1O[C@H](CO)[C@@H](O)[C@H](O)[C@H]1O)[C@@H]3C` [Compound 6, 3-((7S,8S)-18-ethyl-2,5,8,12,17-pentamethyl-13-vinyl-7H,8H-porphyrin-7-yl)-N-methyl-N-(3-(((2S,3R,4S,5S,6R)-3,4,5-trihydroxy-6-(hydroxymethyl)tetrahydro-2H-pyran-2-yl)thio)propyl)propanamide] as the compound, how does the IC90 (MDA-MB-468 [1]) read?
The IC90 was 70 nM.

What about the IC90 (HEK293) of the same compound?
Its IC90 is 200 nM.

What about the IC90 (A549 [2]) of the same compound?
Its IC90 is 140 nM.

And the IC90 (LP9 [3])?
The IC90 was 30 nM.

And the IC90 (B16F10)?
Its IC90 is 640 nM.

And the IC90 (DLD-1 [4])?
The IC90 was 330 nM.

And the IC90 (HH [5])?
The IC90 was 30 nM.

What about the “Cytotoxicity IC10” value (MDA-MB-468 [6]) of the same compound?
Its value is 13250 nM.

What about the “Cytotoxicity IC10” value (A549 [7]) of the same compound?
The value was 29520 nM.

What about the “Cytotoxicity IC10” value (LP9 [8]) of the same compound?
Its value is 19630 nM.

And the “Cytotoxicity IC10” value (DLD-1 [9])?
Its value is 9200 nM.

And the “Cytotoxicity IC10” value (HH [10])?
Its value is 10250 nM.

What about the Adverse toxic events [11] of the same compound?
Its Adverse toxic events is “no adverse toxic events observed at any dose”.
